Values belong to the compound of their own block, whether it stands above or below them.
Assays:
[1] = molecular target: T1, PcIDS1 (Phaedon cochleariae, UniProt M1JS91); experiment: thermal shift assay (Sypro Orange); type: binding; details: 5 mM MgCl2, pH 7.0
T1 construct: N-terminal signal peptide (residues 1-85) removed; N-terminal His6-SUMO tag cut with Ulp1; E. coli BL21(DE3); homodimer; C-terminal residue A429
T1 sequence (M1JS91 86-429): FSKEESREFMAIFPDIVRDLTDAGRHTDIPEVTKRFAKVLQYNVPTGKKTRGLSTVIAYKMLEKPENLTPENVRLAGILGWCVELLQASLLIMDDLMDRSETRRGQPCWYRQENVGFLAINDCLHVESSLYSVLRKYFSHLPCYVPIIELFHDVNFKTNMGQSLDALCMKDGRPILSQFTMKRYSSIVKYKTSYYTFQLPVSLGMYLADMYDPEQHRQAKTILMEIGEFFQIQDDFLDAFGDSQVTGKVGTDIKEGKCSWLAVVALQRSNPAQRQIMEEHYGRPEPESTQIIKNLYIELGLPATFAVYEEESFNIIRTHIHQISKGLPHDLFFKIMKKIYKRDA

[2] = molecular target: T1, PcIDS1; experiment: crystal structure; type: binding

Structure (SMILES): CC(C)=CCC/C(C)=C/CC/C(C)=C/COP(=O)(O)OP(=O)(O)O [FPP, farnesyl pyrophosphate]
dTm [1]: 7 °C

Structure (SMILES): O=P(O)(O)C(O)(Cn1ccnc1)P(=O)(O)O [ZOL, zoledronic acid]
dTm ([1]; 200 µM ligand, allylic site): 28 °C

More lines, main results first:

dTm ([1]; allylic site in the structure): 17 °C
Structure (SMILES): CC(C)=CCC/C(C)=C/COP(=O)(O)OP(=O)(O)O [GPP, geranyl pyrophosphate]
crystal structure ([2]; Mn2+, second site, allosteric): contains well-defined electron density for a second GPP molecule (GPPAllo; Fig. 3h)

dTm ([1]; allylic and homoallylic sites): 7 °C
Structure (SMILES): C=C(C)CCOP(=O)(O)OP(=O)(O)O [IPP, isopentenyl pyrophosphate]

crystal structure ([2]; Mg2+, IPP added but not bound, allylic site): 3-Br-GPP mimics GPPAl coordination
Structure (SMILES): CC(C)=CCC/C(Br)=C/COP(=O)(O)OP(=O)(O)O [3-Br-GPP]

From article PMC10396970, “Metal-dependent enzyme symmetry guides the biosynthetic flux of terpene precursors” (Nature Chemistry, 2023)
